Values joined by “and” are separate entries in the source; they are usually repeats but may differ in a detail not shown here. Equal entries are not always repeated. Inconclusive results and toxic doses are left out.

In the assay the test system is P388 leukemia ip, CD2F1 mice, survival T/C. Description: NCI In Vivo Anticancer Drug Screen. Data for tumor model P388 Leukemia (intraperitoneal) in CD2F1 (CDF1) mice. To be noted: endpoint: median survival time, higher = longer survival. In short, it runs like this: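 Mice carrying the transplanted tumor received test compound or vehicle. Survival was recorded in each group, and the value is the treated-group measurement divided by that of the vehicle-treated control group.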

Setting [1] is: dose: 50.0 mg/kg/injection, schedule: Q01DX005 (ip), vehicle: saline with Tween-80.
Where [2] appears, read: dose: 100.0 mg/kg/injection, schedule: Q01DX005 (ip), vehicle: saline with Tween-80.
The mark [3] stands for this setting: dose: 200.0 mg/kg/injection, schedule: Q01DX005 (ip), vehicle: saline with Tween-80.
Where [4] appears, read: dose: 12.5 mg/kg/injection, schedule: Q01DX005 (ip), vehicle: Klucel (hydroxypropylcellulose) (HPC).
Setting [5] is: dose: 25.0 mg/kg/injection, schedule: Q01DX005 (ip), vehicle: Klucel (hydroxypropylcellulose) (HPC).
Setting [6] is: dose: 50.0 mg/kg/injection, schedule: Q01DX005 (ip), vehicle: Klucel (hydroxypropylcellulose) (HPC).
Where [7] appears, read: dose: 100.0 mg/kg/injection, schedule: Q01DX005 (ip), vehicle: Klucel (hydroxypropylcellulose) (HPC).
Where [8] appears, read: dose: 12.5 mg/kg/injection, schedule: Q01DX009 (ip), vehicle: saline.
Setting [9] is: dose: 25.0 mg/kg/injection, schedule: Q01DX009 (ip), vehicle: saline.
Where [10] appears, read: dose: 50.0 mg/kg/injection, schedule: Q01DX009 (ip), vehicle: saline.
The mark [11] stands for this setting: dose: 100.0 mg/kg/injection, schedule: Q01DX009 (ip), vehicle: saline.

With `CC1(C)CCC[C@](C)(O)C2CCC=CC21` (stereo partly drawn), the T/C (dose: 100.0 mg/kg/injection, schedule: Q04DX002 (ip), vehicle: Klucel (hydroxypropylcellulose) (HPC)) is 106 % of control; the T/C (dose: 200.0 mg/kg/injection, schedule: Q04DX002 (ip), vehicle: Klucel (hydroxypropylcellulose) (HPC)) was 104 % of control; the T/C (dose: 400.0 mg/kg/injection, schedule: Q04DX002 (ip), vehicle: Klucel (hydroxypropylcellulose) (HPC)) was 114 % of control.
Regarding `CN(C)CCC1c2ccc(Cl)cc2CCc2cccnc21` (stereo not drawn) (tested in a mixture with another compound), the T/C (dose: 50.0 mg/kg/injection, schedule: Q01DX005 (ip), vehicle: saline) was 107 % of control and the T/C (dose: 100.0 mg/kg/injection, schedule: Q01DX005 (ip), vehicle: saline) is 99 % of control.
With `COc1ccc(CNC(=O)C(CO)N2C(=O)c3ccccc3C2=O)cc1` (stereo not drawn), the T/C under setting [1] is 96 % of control, the T/C under setting [2] is 100 % of control and the T/C under setting [3] was 90 % of control.
For `Cc1cnc(NCCCCCCNc2ncc(C)c(-c3ccccc3O)n2)nc1-c1ccccc1O`, the T/C (dose: 100.0 mg/kg/injection, schedule: Q04DX003 (ip), vehicle: saline with Tween-80) was 91 % of control; the T/C (dose: 200.0 mg/kg/injection, schedule: Q04DX003 (ip), vehicle: saline with Tween-80) is 97 % of control; the T/C (dose: 400.0 mg/kg/injection, schedule: Q04DX003 (ip), vehicle: saline with Tween-80) is 91 % of control.
In the case of `Nc1cccc2c1C(=O)c1cccc3snc-2c13`, the T/C runs as follows: under setting [4], 102 % of control; under setting [5], 104 % of control; under setting [6], 100 % of control and 97 % of control; under setting [7], 87 % of control.
With `COc1ccc(CCNCC(O)c2ccc(C)s2)cc1OC` (stereo not drawn), the T/C under setting [8] is 100 % of control; the T/C under setting [9] is 86 % of control; the T/C under setting [10] was 101 % of control and 86 % of control; the T/C under setting [11] is 98 % of control.
With `Cc1cc(O)c(C=Nc2ccc3ccccc3c2)c2c1C(=O)Oc1c(CO)c(O)c(C(=O)O)c(C=Nc3ccc4ccccc4c3)c1O2`, the T/C runs as follows: under setting [4], 86 % of control and 90 % of control; under setting [5], 104 % of control; under setting [7], 88 % of control and 92 % of control.
Turning to `CCOC(=O)c1c(Cl)c(CC)c(Cl)n2c1nc1ccccc12`, the T/C was 97 % of control (dose: 60.0 mg/kg/injection, schedule: Q01DX005 (ip), vehicle: saline with Tween-80); 93 % of control (dose: 120.0 mg/kg/injection, schedule: Q01DX005 (ip), vehicle: saline with Tween-80); 101 % of control (dose: 240.0 mg/kg/injection, schedule: Q01DX005 (ip), vehicle: saline with Tween-80).
In the case of `COc1ccc2c(c1OC)-c1ccccc1C(=O)OC2`, the T/C was 109 % of control (dose: 100.0 mg/kg/injection, schedule: Q04DX002 (ip), vehicle: saline with Tween-80); 100 % of control (dose: 200.0 mg/kg/injection, schedule: Q04DX002 (ip), vehicle: saline with Tween-80); 91 % of control (dose: 400.0 mg/kg/injection, schedule: Q04DX002 (ip), vehicle: saline with Tween-80).
On to `CCCC(O)C(NC(=O)CCl)C(=O)O` (stereo not drawn), for which the T/C is, setting by setting: under setting [8], 105 % of control and 97 % of control; under setting [9], 100 % of control; under setting [10], 104 % of control and 88 % of control; under setting [11], 91 % of control; (dose: 200.0 mg/kg/injection, schedule: Q01DX009 (ip), vehicle: saline) 86 % of control.
In the case of `COc1cccc2c1C(=O)c1c(O)c3c(c(O)c1C2=O)CC(O)(c1csc(N)n1)CC3O` (stereo not drawn), the T/C (dose: 1.56 mg/kg/injection, schedule: Q01DX009 (ip), vehicle: other) is 100 % of control; the T/C (dose: 3.13 mg/kg/injection, schedule: Q01DX009 (ip), vehicle: other) is 107 % of control; the T/C (dose: 6.25 mg/kg/injection, schedule: Q01DX009 (ip), vehicle: other) is 101 % of control; the T/C (dose: 12.5 mg/kg/injection, schedule: Q01DX009 (ip), vehicle: other) is 108 % of control; the T/C (dose: 25.0 mg/kg/injection, schedule: Q01DX009 (ip), vehicle: other) is 107 % of control; the T/C (dose: 50.0 mg/kg/injection, schedule: Q01DX009 (ip), vehicle: other) is 108 % of control.
`C=CCC12CC(C)OC1=Nc1ccccc1NC2=O` (stereo not drawn): the T/C is 98 % of control under setting [1], 100 % of control under setting [2] and 104 % of control under setting [3].
`CSC1=CC(=NCc2ccccc2)CC(C)(C)S1`: the T/C (dose: 15.0 mg/kg/injection, schedule: Q01DX005 (ip), vehicle: Klucel (hydroxypropylcellulose) (HPC)) is 110 % of control; the T/C (dose: 30.0 mg/kg/injection, schedule: Q01DX005 (ip), vehicle: Klucel (hydroxypropylcellulose) (HPC)) was 104 % of control; the T/C (dose: 60.0 mg/kg/injection, schedule: Q01DX005 (ip), vehicle: Klucel (hydroxypropylcellulose) (HPC)) was 101 % of control and 105 % of control.
In the case of `COc1cccc2c1C(=O)c1c(O)c3c(c(O)c1C2=O)C[C@@](O)(/C(C)=N/NC(=O)c1ccc(N(C)C)cc1)C[C@@H]3OC1CC(N)C(O)C(C)O1` (stereo partly drawn), the T/C reads like this: (dose: 0.12 mg/kg/injection, schedule: Q01DX009 (ip), vehicle: water) 94 % of control; (dose: 0.25 mg/kg/injection, schedule: Q01DX009 (ip), vehicle: water) 111 % of control; (dose: 0.5 mg/kg/injection, schedule: Q01DX009 (ip), vehicle: water) 150 % of control and 154 % of control; (dose: 1.0 mg/kg/injection, schedule: Q01DX009 (ip), vehicle: water) 154 % of control and 164 % of control; (dose: 2.0 mg/kg/injection, schedule: Q01DX009 (ip), vehicle: water) 164 % of control and 181 % of control; (dose: 4.0 mg/kg/injection, schedule: Q01DX009 (ip), vehicle: water) 157 % of control and 172 % of control. In addition, the T/C by setting is: (dose: 8.0 mg/kg/injection, schedule: Q01DX009 (ip), vehicle: water) 86 % of control; (dose: 10.0 mg/kg/injection, schedule: Q01DX001 (ip), vehicle: water) 159 % of control; (dose: 16.0 mg/kg/injection, schedule: Q01DX009 (ip), vehicle: water) 89 % of control; (dose: 20.0 mg/kg/injection, schedule: Q01DX001 (ip), vehicle: water) 166 % of control; (dose: 40.0 mg/kg/injection, schedule: Q01DX001 (ip), vehicle: water) 115 % of control.
On to `c1cc2c3c(cccc3c1)-c1nc3ccccc3nc1-2`, for which the T/C (dose: 25.0 mg/kg/injection, schedule: Q01DX009 (ip), vehicle: Klucel (hydroxypropylcellulose) (HPC)) was 101 % of control; the T/C (dose: 50.0 mg/kg/injection, schedule: Q01DX009 (ip), vehicle: Klucel (hydroxypropylcellulose) (HPC)) was 100 % of control; the T/C (dose: 100.0 mg/kg/injection, schedule: Q01DX009 (ip), vehicle: Klucel (hydroxypropylcellulose) (HPC)) was 92 % of control.
As to `O=S(CCCl)c1ccccc1` (stereo not drawn), the T/C (dose: 25.0 mg/kg/injection, schedule: Q01DX009 (ip), vehicle: saline with Tween-80) is 96 % of control; the T/C (dose: 50.0 mg/kg/injection, schedule: Q01DX009 (ip), vehicle: saline with Tween-80) is 97 % of control; the T/C (dose: 100.0 mg/kg/injection, schedule: Q01DX009 (ip), vehicle: saline with Tween-80) was 101 % of control; the T/C (dose: 200.0 mg/kg/injection, schedule: Q01DX009 (ip), vehicle: saline with Tween-80) was 90 % of control.
Consider `CCC1(O)CC2CCc3[nH]c4ccccc4c3CCN(C2)C1` (stereo not drawn), for which the T/C was 100 % of control (dose: 5.25 mg/kg/injection, schedule: Q01DX005 (ip), vehicle: Klucel (hydroxypropylcellulose) (HPC)); 100 % of control (dose: 10.5 mg/kg/injection, schedule: Q01DX005 (ip), vehicle: Klucel (hydroxypropylcellulose) (HPC)); 98 % of control (dose: 21.0 mg/kg/injection, schedule: Q01DX005 (ip), vehicle: Klucel (hydroxypropylcellulose) (HPC)); 95 % of control (dose: 42.0 mg/kg/injection, schedule: Q01DX005 (ip), vehicle: Klucel (hydroxypropylcellulose) (HPC)).
Turning to `O=C(O)CC1CC(O)CC/C1=N\Nc1ccc([N+](=O)[O-])cc1[N+](=O)[O-]` (stereo not drawn), the T/C is, setting by setting: under setting [1], 102 % of control; under setting [2], 98 % of control; under setting [3], 91 % of control.
For the compound `CC(=O)Nc1c(Br)cc(Br)c2c1C(=O)c1ccccc1-2`, the T/C by setting is: under setting [6], 91 % of control; under setting [7], 91 % of control; (dose: 200.0 mg/kg/injection, schedule: Q01DX005 (ip), vehicle: Klucel (hydroxypropylcellulose) (HPC)) 97 % of control.

Values taken from PubChem BioAssay AID330 (DTP/NCI, 2004).
